From paper PMC9311539, “Antibacterial Activity against Clinical Isolates and In Vivo Efficacy of Coralmycins” (Antibiotics, 2022)
Values after ≈ are worked out from the molar mass of the structure shown. “Also recorded” adds a separate entry of the source. Read-outs that look alike come from different tables or passages of the source.

Columns and labels:
[1] = tested on: MSSA; experiment: MIC, broth microdilution, clinical isolates: MSSA; assay type: cell-based; conditions: Staphylococcus aureus, 26 clinical isolates
Protocol: (§1) To assess the MICs for antibiotic susceptibility, Gram-positive bacteria isolated from human clinical specimens were obtained from several general hospitals in Seoul, Korea, during 2002–2018. Staphylococcus aureus Giorgio and Streptococcus pneumoniae ATCC49619 were used to test in vivo efficacies against […], in mice.
(§2) The MICs of the antimicrobial agents were determined by a twofold microdilution broth method, as described by the Clinical and Laboratory Standards Institute. Briefly, test organisms were grown on Mueller–Hinton agar (MHA, BD Difco, Sparks, MD, USA) plates, subcultured into cation-adjusted Mueller–Hinton broth (CAMHB, BD Difco, Sparks, MD, USA), and incubated for 18 h at 35 °C. For S. pneumoniae culture, 5% sheep blood (Hanil Comed, Seongnam, Korea) was added. The cultured bacteria were diluted using phosphate-buffered saline (PBS) to achieve a bacterial cell density of approximately 5 × 10^6 CFU/mL. All test organisms were loaded into 96-well plates containing serial dilutions of the antimicrobial agents to achieve a concentration of 5 × 10^4 CFU/well. The plates were incubated at 35 °C for 18–20 h and examined for bacterial growth.

[2] = tested on: MRSA; experiment: MIC, broth microdilution, clinical isolates: MRSA; assay type: cell-based, Staphylococcus aureus
Protocol: as §1, §2

[3] = tested on: CNS (coagulase-negative staphylococci); experiment: MIC, broth microdilution, clinical isolates: CNS; assay type: cell-based
Protocol: as §1, §2

[4] = tested on: VRE; experiment: MIC, broth microdilution, clinical isolates: VRE; assay type: cell-based, vancomycin-resistant Enterococcus
Protocol: as §1, §2

[5] = tested on: S. pneumoniae; experiment: MIC, broth microdilution, clinical isolates: S. pneumoniae; assay type: cell-based, Streptococcus pneumoniae
Protocol: as §1, §2

[6] = tested on: Vancomycin-sensitive E. faecalis; experiment: MIC, broth microdilution, clinical isolates: vancomycin-sensitive E. faecalis; assay type: cell-based, Enterococcus faecalis
Protocol: as §1, §2

[7] = tested on: Vancomycin-sensitive E. faecium; experiment: MIC, broth microdilution, clinical isolates: vancomycin-sensitive E. faecium; assay type: cell-based, Enterococcus faecium
Protocol: as §1, §2

[8] = tested on: S. aureus Giorgio; experiment: MIC against S. aureus Giorgio; assay type: cell-based, Staphylococcus aureus
Protocol: as §2

[9] = tested on: S. pneumoniae ATCC49619; experiment: MIC against S. pneumoniae ATCC49619; assay type: cell-based; conditions: Streptococcus pneumoniae, ATCC 25922 / ATCC 49619, printed as S. pneumoniae ATCC 25922; read-out: MIC
Protocol: as §2

[10] = tested on: MRSA CCARM 3167; experiment: MIC against MRSA CCARM 3167; assay type: cell-based; conditions: Staphylococcus aureus; read-out: MIC
Protocol: as §2

[11] = tested on: VRE 3; experiment: MIC against VRE 3; assay type: cell-based, vancomycin-resistant Enterococcus; conditions: Enterococcus, read-out: MIC
Protocol: as §2

[12] = tested on: S. aureus Giorgio; experiment: Time-kill assay, S. aureus Giorgio; assay type: cell-based, Staphylococcus aureus
Protocol: (§3) Time-kill analysis was performed by the NCCLS M26-A method. The test organisms (S. aureus Giorgio, S. pneumoniae ATCC49619, MRSA CCARM 3167, and VRE 3) incubated in CAMHB for 18 h at 35 °C were diluted to 10^5 CFU/mL with fresh CAMHB, and the diluted cultures were preincubated for 2 h. For S. pneumoniae culture, 5% sheep blood (Hanil Comed, Seongnam, Korea) was added. […] Culture aliquots (0.1 mL) were removed after 0, 2, 4, 6 and 24 h of incubation, and serial 10-fold dilutions were prepared in saline as needed. The numbers of viable cells were determined on drug-free MHA plates after 20 h of incubation. A compound was considered bactericidal if the original inoculum was reduced by 3 log CFU/mL (99.9%) at each concentration or was considered bacteriostatic if the inoculum was reduced by 0–3 log CFU/mL.

[13] = tested on: S. pneumoniae ATCC49619; experiment: Time-kill assay, S. pneumoniae ATCC49619; assay type: cell-based, Streptococcus pneumoniae
Protocol: as §3

[14] = tested on: MRSA CCARM 3167; experiment: Time-kill assay, MRSA CCARM 3167; assay type: cell-based, Staphylococcus aureus
Protocol: as §3

[15] = tested on: VRE 3; experiment: Time-kill assay, VRE 3; assay type: cell-based, vancomycin-resistant Enterococcus
Protocol: as §3

[16] = tested on: S. aureus Giorgio; experiment: Neutropenic mouse thigh infection model; assay type: in vivo, female ICR mice
Protocol: (§4) For the respiratory tract infection model, neutropenic mice were anesthetized and intranasally inoculated with a 50 μL suspension of S. pneumoniae ATCC49619 (4.4 × 10^8 CFU/mL). For the thigh infection model, the neutropenic mice were administered an intramuscular injection of a 100 μL suspension of S. aureus Giorgio (1 × 10^6 CFU/mL) into both thighs. For both models, four mice were included in each group. At 2 h after infection, two mice were sacrificed, and the infected thighs or lungs (n = 4) were excised to determine the initial bacterial levels. […] At 24 h after infection, the mice were sacrificed by cervical dislocation; their thighs or lungs were removed, homogenized, serially diluted with saline, and plated onto MHA to count the number of bacteria remaining. The number of viable bacterial cells (CFU) in the thighs or lungs of vehicle- and drug-treated mice was determined.

[17] = tested on: S. pneumoniae ATCC49619; experiment: Neutropenic mouse respiratory tract infection model; assay type: in vivo, female ICR mice
Protocol: as §4

[18] = second trial, s.c. 100 mg/kg bid

Q: What does the source list for `CO[C@@H](C(N)=O)[C@H](NC(=O)c1ccc(NC(=O)c2ccc([N+](=O)[O-])cc2)cc1)C(=O)Nc1ccc(C(=O)Nc2ccc(C(=O)Nc3ccc(C(=O)O)c(O)c3OC(C)C)c(O)c2OC(C)C)cc1` [Coralmycin A, coralmycin A]?
A: MIC50 ([1]; read-out: MIC50): 0.5 µg/mL (≈ 0.534 µM); MIC90 ([1]; read-out: MIC90): 1 µg/mL (≈ 1.07 µM); MIC90 ([2]; 42 clinical isolates): 1 µg/mL (≈ 1.07 µM); MIC50 ([2]; Staphylococcus aureus, MRSA, 42 clinical isolates, read-out: MIC50): 1 µg/mL (≈ 1.07 µM); MIC90 ([2]; Staphylococcus aureus, 42 MRSA isolates, read-out: MIC90): 1 µg/mL (≈ 1.07 µM); MIC90 ([3]; 31 clinical isolates): 1 µg/mL (≈ 1.07 µM); MIC50 ([3]; 31 clinical isolates, read-out: MIC50): 0.25 µg/mL (≈ 0.267 µM); MIC90 ([3]; 31 coagulase-negative staphylococci isolates, read-out: MIC90): 1 µg/mL (≈ 1.07 µM); MIC90 ([4]; 46 clinical isolates): 1 µg/mL (≈ 1.07 µM); MIC50 ([4]; Enterococcus, VRE, 46 clinical isolates, read-out: MIC50): 0.5 µg/mL (≈ 0.534 µM); MIC90 ([4]; Enterococcus, 46 VRE isolates, read-out: MIC90): 1 µg/mL (≈ 1.07 µM); MIC90 ([5]; 27 clinical isolates): 1 µg/mL (≈ 1.07 µM); MIC90 ([5]; Streptococcus pneumoniae, 27 S. pneumoniae isolates, read-out: MIC90): 1 µg/mL (≈ 1.07 µM); MIC50 ([5]; Streptococcus pneumoniae, 27 clinical isolates, read-out: MIC50): 0.25 µg/mL (≈ 0.267 µM); MIC90 ([6]; 32 clinical isolates): 2 µg/mL (≈ 2.14 µM); MIC50 ([6]; Enterococcus faecalis, 32 clinical isolates, read-out: MIC50): 1 µg/mL (≈ 1.07 µM); MIC90 ([6]; vancomycin-sensitive Enterococcus faecalis, read-out: MIC90): 2 µg/mL (≈ 2.14 µM); MIC90 ([7]; 32 clinical isolates): 0.5 µg/mL (≈ 0.534 µM); MIC50 ([7]; Enterococcus faecium, 32 clinical isolates, read-out: MIC50): 0.25 µg/mL (≈ 0.267 µM); MIC90 ([7]; vancomycin-sensitive Enterococcus faecium, read-out: MIC90): 0.5 µg/mL (≈ 0.534 µM); MIC [8]: 0.003 µg/mL (≈ 0.00321 µM); MIC ([8]; Staphylococcus aureus, read-out: MIC): 0.006 µg/mL (≈ 0.00641 µM); MIC [9]: 10 µg/mL (≈ 10.7 µM); MIC [10]: 0.01 µg/mL (≈ 0.0107 µM); MIC [11]: 0.5 µg/mL (≈ 0.534 µM); time-kill activity ([12]; 0.5× MIC (Figure S4)): bacteriostatic (considered bacteriostatic if the inoculum was reduced by 0–3 log CFU/mL); time-kill activity ([12]; 1× MIC): bactericidal (considered bactericidal if the original inoculum was reduced by 3 log CFU/mL (99.9%) at each concentration); time-kill activity ([12]; 2× and 4× MIC, 24 h): bactericidal (considered bactericidal if the original inoculum was reduced by 3 log CFU/mL (99.9%) at each concentration); time-kill activity ([13]; 0.5× MIC (Figure S4)): bacteriostatic (considered bacteriostatic if the inoculum was reduced by 0–3 log CFU/mL); time-kill activity ([13]; 1× MIC): bactericidal (considered bactericidal if the original inoculum was reduced by 3 log CFU/mL (99.9%) at each concentration); time-kill activity ([13]; 2× and 4× MIC, 24 h): bactericidal (considered bactericidal if the original inoculum was reduced by 3 log CFU/mL (99.9%) at each concentration); time-kill activity ([14]; 1× MIC): bactericidal (considered bactericidal if the original inoculum was reduced by 3 log CFU/mL (99.9%) at each concentration); time-kill activity ([14]; 2× and 4× MIC, 24 h): bactericidal (considered bactericidal if the original inoculum was reduced by 3 log CFU/mL (99.9%) at each concentration); time-kill activity ([15]; 1× MIC): bactericidal (considered bactericidal if the original inoculum was reduced by 3 log CFU/mL (99.9%) at each concentration); time-kill activity ([15]; 2× and 4× MIC, 24 h): bactericidal (considered bactericidal if the original inoculum was reduced by 3 log CFU/mL (99.9%) at each concentration); antibacterial effect in thigh infection model ([16]; 20 mg/kg bid): almost no antibacterial effect; antibacterial effect in thigh infection model ([16]; s.c. 4 and 20 mg/kg at 3 and 6 h after infection): almost no antibacterial effect; in vivo effect (bacteriostatic or bactericidal) ([17]; 4 mg/kg bid s.c.): bacteriostatic effects; also recorded: static effect; in vivo effect (bacteriostatic or bactericidal) ([17]; 20 mg/kg bid s.c.): bacteriostatic effects; also recorded: static effect; in vivo effect (bacteriostatic or bactericidal) ([17]; 100 mg/kg bid s.c.): significant bactericidal effects; reduction of bacterial burden in the lungs compared to the 24-h control group ([17]; first experiment, s.c. 4 mg/kg bid): 1.43 log10 CFU; reduction of bacterial burden in the lungs compared to the 24-h control group ([17]; first experiment, s.c. 20 mg/kg bid): 1.81 log10 CFU; antibacterial effect in respiratory tract infection model ([17]; first experiment, s.c. 4 and 20 mg/kg at 3 and 6 h after infection): significant antibacterial effects; reduction of bacterial burden in the lungs compared to the 24-h control group ([17]; second trial, s.c. 4 mg/kg bid): 1.45 log10 CFU; reduction of bacterial burden in the lungs compared to the 24-h control group ([17]; second trial, s.c. 20 mg/kg bid): 1.88 log10 CFU; reduction of bacterial burden in the lungs compared to the 24-h control group [17, 18]: 3.02 log10 CFU; reduction of the starting bacterial burden compared to the 2-h control group [17, 18]: 1.34 log10 CFU/lung
